Our source for the Vmax and Km values is patent US20080194701A1, “Bifunctional Enzyme with Y-Glutamylcysteine Synthetase and Glutathione Synthetase Activity and Uses Thereof” (priority 2004, published 2008).

The target in test [1] is T1, S. agalactiae γ-GCS-GS (Streptococcus agalactiae serotype V, UniProt Q8DXM9).
T1 sequence (Q8DXM9 1-750): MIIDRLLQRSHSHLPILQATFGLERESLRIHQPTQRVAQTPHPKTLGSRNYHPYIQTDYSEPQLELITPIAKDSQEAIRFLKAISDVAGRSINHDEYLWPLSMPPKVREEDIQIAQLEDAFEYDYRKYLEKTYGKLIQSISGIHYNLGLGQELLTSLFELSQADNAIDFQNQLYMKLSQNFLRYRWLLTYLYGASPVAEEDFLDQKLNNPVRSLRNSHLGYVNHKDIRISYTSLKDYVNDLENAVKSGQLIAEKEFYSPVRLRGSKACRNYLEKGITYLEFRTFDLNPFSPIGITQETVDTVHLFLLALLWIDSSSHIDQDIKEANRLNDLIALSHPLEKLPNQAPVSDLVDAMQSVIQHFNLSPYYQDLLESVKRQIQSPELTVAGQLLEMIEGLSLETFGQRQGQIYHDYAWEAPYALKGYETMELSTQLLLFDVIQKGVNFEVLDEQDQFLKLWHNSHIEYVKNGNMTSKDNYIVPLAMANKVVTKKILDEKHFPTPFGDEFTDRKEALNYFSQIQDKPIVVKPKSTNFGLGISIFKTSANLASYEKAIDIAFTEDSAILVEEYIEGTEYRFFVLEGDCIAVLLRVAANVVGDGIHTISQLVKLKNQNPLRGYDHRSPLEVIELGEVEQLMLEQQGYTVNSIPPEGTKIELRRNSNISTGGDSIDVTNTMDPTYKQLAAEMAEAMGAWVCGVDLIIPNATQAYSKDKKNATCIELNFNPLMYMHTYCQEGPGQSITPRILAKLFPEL
Kind of test: GS activity assay based on ADP formation, S. agalactiae γ-GCS-GS. The following applies: GS activity. The procedure: Transformed cells were grown, induced, and harvested by centrifugation, and were then broken using a French pressure cell. […] The column was equilibrated with 50 mM Tris HCl buffer, pH 7.4, containing 5 mM L-glutamate, 5 mM MgCl2, and 5 mM β-mercaptoethanol, and the high-speed supernatant was loaded. After washing the column with equilibration buffer to remove proteins lacking a His-tag, the expressed His8-tagged protein was eluted using the same buffer supplemented with 200 mM imidazole. Amount of γ-GCS activity was determined as described in Example 2. […] It was observed that the purified enzyme catalyzed both the γ-GCS and the GS reactions. Since the GS-specific activity was higher than the specific activity for any known GS enzyme, it was apparent that the expressed 85 kDa S. agalactiae protein (rather than a trace impurity), accounted for the observed GS activity. Using the pREP4 auxiliary plasmid instead of the pRARE plasmid gave somewhat lower yields (325 mg total protein vs. 442 mg protein using pRARE) but the specific activities of the γ-GCS activity (870 units/mg) and GS activities (1143 units/mg) were similar.
Results for E. coli GS are from H. Gushima et al. J. Appl. Biochem. 5, 210-218 (1983). Results for rat GS are from J. L. Luo et al. Biochem. Biophys. Res. Commun. 275, 577-581 (2000). Results for human GS are from R. Njalsson et al. Biochem. Biophys. Res. Commun. 289, 80-84 (2001) and R. Njalsson et al. Biochem. J. 349, 275-279 (2000).

The target in test [2] is T2, Rat GS (Rattus norvegicus, UniProt P46413).
T2 sequence (P46413 1-474): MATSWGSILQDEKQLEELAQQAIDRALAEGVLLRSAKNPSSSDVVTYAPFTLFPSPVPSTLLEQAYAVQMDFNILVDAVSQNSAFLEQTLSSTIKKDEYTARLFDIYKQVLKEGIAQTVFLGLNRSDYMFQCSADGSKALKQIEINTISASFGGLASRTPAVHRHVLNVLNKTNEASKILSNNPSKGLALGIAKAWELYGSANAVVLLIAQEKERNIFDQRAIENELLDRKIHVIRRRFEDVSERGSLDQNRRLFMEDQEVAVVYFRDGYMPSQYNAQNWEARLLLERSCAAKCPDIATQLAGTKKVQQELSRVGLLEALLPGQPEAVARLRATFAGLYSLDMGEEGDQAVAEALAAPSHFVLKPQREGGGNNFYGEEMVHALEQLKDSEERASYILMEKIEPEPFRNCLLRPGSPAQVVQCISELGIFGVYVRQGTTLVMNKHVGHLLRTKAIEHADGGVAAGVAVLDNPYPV
The following applies: cited from earlier work.

Test [3] has as its target S. mutans γ-GCS-GS (Streptococcus mutans serotype c, UniProt Q8DW15). Kind of test: γ-GCS activity of S. mutans γ-GCS-GS. The following applies: substrate Km, γ-GCS activity. From the text:
3′ and 5′ […] 3′ and introduced unique Bgl II and Hind III sites (underlined), respectively.

For orientation: Km means the substrate concentration at which the rate is half of its maximum.

S. mutans γ-GCS-GS, sequence (Q8DW15 whole entry): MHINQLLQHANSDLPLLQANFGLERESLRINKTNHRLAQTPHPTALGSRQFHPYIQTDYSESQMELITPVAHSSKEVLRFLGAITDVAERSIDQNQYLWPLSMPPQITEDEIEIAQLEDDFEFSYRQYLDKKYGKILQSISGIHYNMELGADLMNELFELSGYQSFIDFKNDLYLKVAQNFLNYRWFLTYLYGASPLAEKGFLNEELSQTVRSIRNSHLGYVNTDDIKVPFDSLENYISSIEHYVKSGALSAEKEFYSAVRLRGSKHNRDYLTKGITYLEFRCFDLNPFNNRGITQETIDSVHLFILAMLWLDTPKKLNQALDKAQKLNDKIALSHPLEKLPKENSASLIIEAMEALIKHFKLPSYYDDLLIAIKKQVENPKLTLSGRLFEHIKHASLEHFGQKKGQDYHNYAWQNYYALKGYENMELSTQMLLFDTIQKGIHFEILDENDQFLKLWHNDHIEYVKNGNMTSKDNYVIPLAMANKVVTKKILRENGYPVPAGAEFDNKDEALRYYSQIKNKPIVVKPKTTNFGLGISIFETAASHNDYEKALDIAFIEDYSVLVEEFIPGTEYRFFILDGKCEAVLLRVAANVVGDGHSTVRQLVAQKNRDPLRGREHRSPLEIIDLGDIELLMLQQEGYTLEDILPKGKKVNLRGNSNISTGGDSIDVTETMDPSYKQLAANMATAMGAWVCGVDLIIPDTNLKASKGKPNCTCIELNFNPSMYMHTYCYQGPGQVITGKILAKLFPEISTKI

Take `Nc1ncnc2c1ncn2[C@@H]1O[C@H](COP(=O)(O)OP(=O)(O)OP(=O)(O)O)[C@@H](O)[C@H]1O` [ATP]: the Vmax in test [1] (unit = 1 μmol product per hour) is reported as 1662 ± 77 units/mg; in test [2], 678 units/mg. For the same compound, the Km is 420 ± 49 µM in test [1] (substrate Km), 37 µM in test [2] (substrate Km) and 288 ± 105 µM in test [3].
